Test results taken from patent publication US20260007639A1, “COMPOUNDS FOR THE TREATMENT OF NEUROMUSCULAR DISORDERS” (NMD PHARMA A/S, priority 2017, published 2026).

What was measured:
human CIC-1 channels = molecular target: T1, human CIC-1 channels (Homo sapiens, UniProt P35523); assay: Automated patch-clamp on human CIC-1 expressed in CHO cells: shift of half activation voltage ΔV1/2; type: cell-based; conditions: compound in intracellular solution vs control cell patches; CHO cells expressing human CIC-1
T1 construct: host or cells: CHO (Chinese hamster ovary) cells constitutively expressing human ClC-1
Description: FIGS. 13A-13B: FIG. 13A illustrates the voltage protocol used to evoke currents in whole cell patches of CHO cells expressing human CIC-1 channels.
Experiments were performed using an automated patch clamp system that allowed high throughput testing of whole cell patches together with both intracellular and extracellular addition of compound.
Automated whole cell patch clamp experiments were performed with the Qpatch 16 system (Sophion Bioscience, Ballerup, Denmark) at room temperature. Data acquisition and analysis were performed in the Qassay software (ver. 5.6, Odense).
To evoke CIC-1 currents in whole cell patches, the membrane potential was initially stepped from a holding potential of −30 mV to +60 mV for 100 ms and then to various test voltages (sweeps) ranging from +120 mV to −140 mV in steps of 20 mV for 300 ms. To obtain tail currents, the membrane potential was stepped to −100 mV after each test voltage for 300 ms and then relaxed to −30 mV for 2 sec between sweeps (FIG. 3).
I/V relationships for whole cell instant and steady state current amplitudes were obtained by plotting average current densities at the beginning and at the end of the 300 ms step against the membrane potential (FIG. 4).
In order to determine the relative overall open probability (Po), the instantaneous tail currents were normalized to the maximal tail current obtained following the most positive voltage step and plotted against the test voltage. Plots of normalized tail currents from each whole cell patch were then fitted to a Boltzmann function allowing determination of half activation voltages (V1/2, FIG. 5).
For automated patch clamp experiments extracellular solutions contained: 2 mM CaCl2), 1 mM MgCl2, 10 mM HEPES, 4 mM KCl, 145 mM NaCl, 10 mM Glucose, pH adjusted to 7.4 with NaOH (2 M). Osmolality adjusted to ˜320 using sucrose.
Intracellular solutions contained: 80 mM CsF, 60 mM CsCl, 5/1 mM KOH/EGTA, 10 mM HEPES, 10 mM NaCl, pH adjusted to 7.2 with NaOH (2 M). Osmolality adjusted to ˜320 mOsm using sucrose.
Cells used in patch clamp experiments were Chinese hamster ovary cells (CHO) constitutively expressing human CIC-1 channels. The amino acid sequence encoded by the cDNA used to create this cell line was identical to the translated sequence for GenBank accession number NM_000083.2. Cells were produced by Charles River (Catalogue CT6175, Cleveland OH, USA) in a cryopreserved format. Experiments were performed on the cells directly after thawing (3×10^6 cells used in each experiment).
To evaluate the compound effect on CIC-1, when applied directly to the intracellular side of the cell membrane, the half activation voltage, V1/2, was determined from whole cell patches with compound added to the intracellular solution and then compared to V1/2 determined from control cell patches with only vehicle added to the intracellular solution. Additionally, the effect of extracellular added compound was evaluated by determine V1/2 and steady state current amplitudes before and after exchanging the extracellular solution to contain compound.
The difference in half activation voltage of CIC-1 channels, ΔV1/2, was determined as the difference between the cell patches treated intracellularly with compound and control cells patches and is reported in Table 4 below. A positive shift in ΔV 1/2 is reflecting CIC-1 channel inhibition by the tested compound. P-values of <0.05 is considered significant.

female Lewis rats = assay: In situ isometric hindlimb force in anaesthetised rats with neuromuscular transmission partially inhibited by Cisatracurium; type: in vivo, rat; conditions: 80 Hz stimulation, Cisatracurium infusion
Description: Isometric hindlimb force was measured in 12-week old female Lewis rats in the presence and absence of compound.
Rats were placed under anesthesia with isoflurane (2-4%), intubated and subsequently connected to a micro ventilator (Microvent 1, Hallowell EMC, US). Two stimulation electrodes were inserted through the skin to stimulate the sciatic nerve. A small incision was made proximal to the ankle, to expose the Achilles tendon, which was tied by cotton string, and connected to a force transducer (Fort250, World Precision Instruments) with adjustable position (Vernier control). The Achilles tendon was then cut distal to the attached cotton string. The rat was placed on a heated pad, and to prevent movement artefacts from contraction of the ankle dorsiflexors, the foot was fixated by tape on a footplate.
Muscle contractile properties were assessed by applying an electrical current (under supramaximal voltage conditions) to the nerve and recording the force generated by the muscle. The muscle was stretched until maximal force was obtained, when assessed by 2 Hz stimulation. Isometric force was measured every 30 seconds at 12 Hz (Twitch), 10 pulses, and at every 5 minutes at 80 Hz (Tetanic) for 1 second (80 pulses). This stimulation pattern was employed throughout the experiment, expect in few cases where 80 Hz stimulation was replaced by 12 Hz (10 pulses). […] When the level of neuromuscular inhibition was stable, the test article was injected i.v. at the chosen concentration. The effect of test article was assessed on its ability to increase force generated from the stimulation pattern applied. The effect was assessed in the ability to increase force per se (tetanic, 80 Hz, stimulation), and the ratio between individual twitch peaks (12 Hz stimulation). The effect was monitored for at least 1 hour after injection of test article. In addition, the time from injection of test article to maximal effect on force (both twitch and tetanic) was noted and the time for the effect to disappear (return to baseline), if possible. When appropriate the infusion of neuromuscular blocking agent was ceased, with the stimulation pattern continued, and the return of force to control levels was monitored. Animals were sacrificed by cervical dislocation while still fully sedated.

rat soleus muscles = assay: Recovery of force in isolated rat soleus nerve-muscle preparations after 115 nM tubocurarine, 50 μM compound (Table 8); conditions: 40 mins exposure
Description: Force traces from a representative muscle stimulated to contract in 1) control condition before addition of neuromuscular blocking agent, 2) the force response to stimulation after 90 minutes incubation with Tubocurarine. […] The traces presented in FIG. 12A (1, 2, 3), correspond to the dotted lines in FIG. 12B, respectively.
Recovery of force is quantified as the percentage of the force prior to tubocurarine that is recovered by the compound.
The current invention relates to compounds that inhibit CIC-1 ion channels and increase muscle excitability and thereby improve muscle function in clinical conditions where muscle activation is failing. Such conditions result in loss of contractile function of skeletal muscle, weakness and excessive fatigue. In this series of experiments the compounds were tested for their ability to restore contractile function of isolated rat muscle when the neuromuscular transmission had been compromised akin to neuromuscular disorders.
Experimentally, soleus muscles from 4-5 wk old rats were isolated with the motor nerve remaining attached. The nerve-muscle preparations were mounted in experimental setups that enabled electrical stimulation of the motor nerve. Stimulation of the motor nerve led to activation of the muscle fibres and ensuing force production that was recorded.
After mounting the nerve-muscle preparation in the experimental setup, the contractile function of the muscle was initially assessed under the control conditions (FIG. 2A). […] The experimental condition mimics the failing neuromuscular transmission in a range of neuromuscular disorders. After addition of tubocurarine the contractile force declined over the next 90 mins to 10-50% of the control force. 50 μM of the test compound was then added and the contractile force recovered despite the continued presence of tubocurarine. To quantify the ability of the compound to restore force the percentage of the initial force that was restored was determined after 40 mins of compound exposure (FIG. 2B) and the point increase is reported in Table 8.

T1 sequence (P35523 whole entry): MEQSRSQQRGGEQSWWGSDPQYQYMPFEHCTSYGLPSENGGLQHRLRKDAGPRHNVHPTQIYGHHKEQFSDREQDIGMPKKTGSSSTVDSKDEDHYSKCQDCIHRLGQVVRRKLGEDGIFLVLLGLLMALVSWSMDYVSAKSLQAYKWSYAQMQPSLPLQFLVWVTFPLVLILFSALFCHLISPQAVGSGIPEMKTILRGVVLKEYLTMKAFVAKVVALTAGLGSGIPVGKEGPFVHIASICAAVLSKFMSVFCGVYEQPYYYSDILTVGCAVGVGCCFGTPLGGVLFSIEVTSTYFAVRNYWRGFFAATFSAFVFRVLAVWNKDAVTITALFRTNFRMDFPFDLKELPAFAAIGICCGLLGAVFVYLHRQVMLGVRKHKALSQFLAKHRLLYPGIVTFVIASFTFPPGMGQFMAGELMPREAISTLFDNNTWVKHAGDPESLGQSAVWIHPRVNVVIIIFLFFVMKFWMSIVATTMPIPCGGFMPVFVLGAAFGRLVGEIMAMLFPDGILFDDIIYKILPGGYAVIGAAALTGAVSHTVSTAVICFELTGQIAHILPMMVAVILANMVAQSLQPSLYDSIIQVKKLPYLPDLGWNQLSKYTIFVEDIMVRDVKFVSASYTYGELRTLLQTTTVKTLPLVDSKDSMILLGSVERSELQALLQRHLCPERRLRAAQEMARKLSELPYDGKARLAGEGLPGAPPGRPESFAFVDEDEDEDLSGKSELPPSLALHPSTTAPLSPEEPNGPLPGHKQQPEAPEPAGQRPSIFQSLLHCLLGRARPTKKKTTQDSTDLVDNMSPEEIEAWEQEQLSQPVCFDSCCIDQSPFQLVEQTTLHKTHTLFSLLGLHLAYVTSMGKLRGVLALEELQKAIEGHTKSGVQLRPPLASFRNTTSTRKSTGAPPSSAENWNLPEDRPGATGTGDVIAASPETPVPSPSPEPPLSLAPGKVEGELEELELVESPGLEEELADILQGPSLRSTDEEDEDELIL

Row | Compound | Δ1/2 (mV) (human CIC-1 channels) | average increase in tetanic force (female Lewis rats; 24.6 mg/kg i.v.) | Point increase (%) of initial force that was restored (rat soleus muscles) | average increase in tetanic force (female Lewis rats; 40.0 mg/kg i.v.) | average increase in tetanic force (female Lewis rats; 44.8 mg/kg i.v.) | average increase in tetanic force (female Lewis rats; 49.2 mg/kg i.v.)
1 | C[C@H](Oc1cc(F)c(Br)cc1-c1ccon1)C(=O)O [Compound A-44, (2S)-2-[4-bromo-5-fluoro-2-(1,2-oxazol-3-yl)phenoxy]propanoic acid] | 17.7 mV | 46.2% | 27% | – | – | –
2 | C[C@H](Oc1ccc(Cl)cc1-c1ccno1)C(=O)O [Compound A-26, (2S)-2-[4-chloro-2-(1,2-oxazol-5-yl)phenoxy]propanoic acid] | 21 mV | – | 20% | 33.4% | – | –
3 | C[C@H](Oc1ccc(Br)cc1-c1csnn1)C(=O)O [Compound A-59, (2S)-2-[4-bromo-2-(1,2,3-thiadiazol-4-yl)phenoxy]propanoic acid] | 7.9 mV | – | 20% | – | – | 42.8%

Second part, led by results:

Row | Δ1/2 (mV) (human CIC-1 channels) | Compound | average increase in tetanic force (female Lewis rats; 24.6 mg/kg i.v.) | Point increase (%) of initial force that was restored (rat soleus muscles) | average increase in tetanic force (female Lewis rats; 40.0 mg/kg i.v.) | average increase in tetanic force (female Lewis rats; 44.8 mg/kg i.v.) | average increase in tetanic force (female Lewis rats; 49.2 mg/kg i.v.)
4 | 13.8 mV | O=C(O)[C@H](CF)Oc1ccc(Br)cc1-c1ccon1 [Compound A-31, (2R)-2-[4-bromo-2-(1,2-oxazol-3-yl)phenoxy]-3-fluoropropanoic acid] | – | 36% | 34.1% | – | –
5 | 11.3 mV | O=C(O)COc1ccc(Br)cc1-c1ccon1 [Compound A-64, 2-[4-bromo-2-(1,2-oxazol-3-yl)phenoxy]acetic acid] | – | 25% | – | 57.7% | –
